How the values were obtained:
[1] = molecular target: Cyclin-dependent kinase 6 (Homo sapiens) (UniProt Q00534); assay: Inhibition of human recombinant CDK6 at 500 nM in presence of ATP by radiometric assay relative to control
[2] = molecular target: Homeodomain-interacting protein kinase 2 (Homo sapiens) (UniProt Q9H2X6); assay: Inhibition of human recombinant HIPK2 at 500 nM in presence of ATP by radiometric assay relative to control
[3] = molecular target: Mast/stem cell growth factor receptor Kit (Homo sapiens) (UniProt P10721); assay: Inhibition of human recombinant KIT at 500 nM related to control ULK1
Chain of Mast/stem cell growth factor receptor Kit (Homo sapiens) (P10721 whole entry): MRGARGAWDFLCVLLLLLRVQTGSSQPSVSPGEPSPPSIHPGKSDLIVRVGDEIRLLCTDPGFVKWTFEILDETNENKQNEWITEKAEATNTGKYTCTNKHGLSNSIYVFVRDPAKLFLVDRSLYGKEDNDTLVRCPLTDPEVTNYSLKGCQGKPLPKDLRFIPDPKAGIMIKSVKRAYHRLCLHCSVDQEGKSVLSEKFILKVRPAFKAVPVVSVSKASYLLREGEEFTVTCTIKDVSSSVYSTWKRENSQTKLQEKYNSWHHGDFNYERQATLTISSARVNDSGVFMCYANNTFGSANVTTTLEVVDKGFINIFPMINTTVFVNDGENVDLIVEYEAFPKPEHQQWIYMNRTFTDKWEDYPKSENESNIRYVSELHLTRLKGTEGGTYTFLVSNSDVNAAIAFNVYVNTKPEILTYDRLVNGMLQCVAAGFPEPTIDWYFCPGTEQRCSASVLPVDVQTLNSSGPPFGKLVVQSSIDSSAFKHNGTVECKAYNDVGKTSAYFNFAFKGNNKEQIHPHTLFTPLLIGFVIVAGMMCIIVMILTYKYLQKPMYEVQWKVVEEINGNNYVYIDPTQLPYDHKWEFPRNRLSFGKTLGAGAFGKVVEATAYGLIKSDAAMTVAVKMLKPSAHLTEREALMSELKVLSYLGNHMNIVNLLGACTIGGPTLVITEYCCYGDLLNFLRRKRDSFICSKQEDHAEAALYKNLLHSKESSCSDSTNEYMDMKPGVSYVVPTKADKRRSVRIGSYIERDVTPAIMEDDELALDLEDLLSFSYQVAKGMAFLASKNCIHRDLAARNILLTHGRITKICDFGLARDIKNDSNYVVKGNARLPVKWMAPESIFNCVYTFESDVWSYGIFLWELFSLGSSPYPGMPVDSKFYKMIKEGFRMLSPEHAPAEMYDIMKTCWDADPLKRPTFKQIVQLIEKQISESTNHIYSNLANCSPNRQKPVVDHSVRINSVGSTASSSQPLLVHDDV

[4] = molecular target: T1, Dual specificity tyrosine-phosphorylation-regulated kinase 3 (Homo sapiens) (UniProt O43781); assay: Inhibition of human recombinant DYRK3 at 15 nM in presence of ATP by radiometric assay relative to control
T1 sequence (whole entry): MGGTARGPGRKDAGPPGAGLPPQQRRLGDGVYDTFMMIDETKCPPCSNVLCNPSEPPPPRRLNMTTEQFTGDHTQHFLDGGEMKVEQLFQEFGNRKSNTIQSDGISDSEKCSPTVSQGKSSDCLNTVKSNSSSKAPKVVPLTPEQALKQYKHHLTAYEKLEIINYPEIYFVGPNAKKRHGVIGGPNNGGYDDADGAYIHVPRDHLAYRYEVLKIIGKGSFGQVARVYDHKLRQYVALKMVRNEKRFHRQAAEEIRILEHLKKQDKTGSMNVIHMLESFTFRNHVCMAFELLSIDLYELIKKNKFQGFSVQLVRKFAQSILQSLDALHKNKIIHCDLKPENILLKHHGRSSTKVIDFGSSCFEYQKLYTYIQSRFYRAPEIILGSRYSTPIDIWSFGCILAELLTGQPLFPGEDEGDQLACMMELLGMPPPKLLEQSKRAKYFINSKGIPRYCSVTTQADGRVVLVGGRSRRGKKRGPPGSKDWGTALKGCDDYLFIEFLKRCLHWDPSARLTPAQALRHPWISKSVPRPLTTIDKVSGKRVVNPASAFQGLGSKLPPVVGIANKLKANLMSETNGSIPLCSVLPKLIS

[5] = molecular target: T2, Ephrin type-B receptor 3 (Homo sapiens) (UniProt P54753); assay: Inhibition of human recombinant EphB3 at 15 nM in presence of ATP by radiometric assay relative to control
T2 sequence (whole entry): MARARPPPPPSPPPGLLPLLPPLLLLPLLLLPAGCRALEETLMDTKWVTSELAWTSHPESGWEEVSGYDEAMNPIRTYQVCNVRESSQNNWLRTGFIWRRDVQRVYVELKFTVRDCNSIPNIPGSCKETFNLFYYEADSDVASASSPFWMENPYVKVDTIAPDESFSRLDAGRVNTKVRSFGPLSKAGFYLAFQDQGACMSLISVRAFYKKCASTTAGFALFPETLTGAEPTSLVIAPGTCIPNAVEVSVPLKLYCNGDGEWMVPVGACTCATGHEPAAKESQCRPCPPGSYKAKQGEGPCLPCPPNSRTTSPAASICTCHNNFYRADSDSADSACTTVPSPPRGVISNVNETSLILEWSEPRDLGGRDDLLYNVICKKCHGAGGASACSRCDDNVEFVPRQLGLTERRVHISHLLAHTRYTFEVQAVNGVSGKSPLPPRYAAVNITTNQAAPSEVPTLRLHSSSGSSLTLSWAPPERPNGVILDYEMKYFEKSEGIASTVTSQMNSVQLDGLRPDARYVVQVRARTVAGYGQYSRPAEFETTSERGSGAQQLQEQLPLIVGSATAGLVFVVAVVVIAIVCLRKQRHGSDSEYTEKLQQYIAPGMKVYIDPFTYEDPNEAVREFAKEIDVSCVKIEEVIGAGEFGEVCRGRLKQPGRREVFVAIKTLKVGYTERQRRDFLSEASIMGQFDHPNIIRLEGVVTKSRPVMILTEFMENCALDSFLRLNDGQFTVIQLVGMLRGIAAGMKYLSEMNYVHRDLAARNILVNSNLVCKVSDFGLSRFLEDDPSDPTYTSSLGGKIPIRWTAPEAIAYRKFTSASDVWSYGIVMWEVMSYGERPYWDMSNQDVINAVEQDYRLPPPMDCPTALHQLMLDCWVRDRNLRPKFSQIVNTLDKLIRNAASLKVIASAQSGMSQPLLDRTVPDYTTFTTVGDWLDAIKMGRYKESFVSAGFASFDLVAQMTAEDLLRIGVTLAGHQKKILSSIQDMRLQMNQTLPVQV

[6] = molecular target: T3, Mitogen-activated protein kinase 12 (Homo sapiens) (UniProt P53778); assay: Inhibition of human recombinant p38gamma at 15 nM related to control ULK1
T3 sequence (whole entry): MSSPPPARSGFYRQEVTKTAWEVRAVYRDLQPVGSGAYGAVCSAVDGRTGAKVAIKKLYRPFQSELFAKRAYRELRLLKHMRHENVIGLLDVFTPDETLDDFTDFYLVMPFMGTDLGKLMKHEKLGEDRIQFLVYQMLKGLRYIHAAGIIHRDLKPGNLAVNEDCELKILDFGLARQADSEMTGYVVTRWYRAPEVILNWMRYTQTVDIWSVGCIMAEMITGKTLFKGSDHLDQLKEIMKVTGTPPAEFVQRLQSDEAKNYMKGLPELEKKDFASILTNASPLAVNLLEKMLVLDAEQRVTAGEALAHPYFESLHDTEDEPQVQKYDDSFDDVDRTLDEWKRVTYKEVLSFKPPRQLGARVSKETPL

[7] = molecular target: Serine/threonine-protein kinase 25 (Homo sapiens) (UniProt O00506); assay: Inhibition of human recombinant YSK1 at 40 nM in presence of ATP by radiometric assay relative to control
Chain of Serine/threonine-protein kinase 25 (Homo sapiens) (O00506 whole entry, looked up): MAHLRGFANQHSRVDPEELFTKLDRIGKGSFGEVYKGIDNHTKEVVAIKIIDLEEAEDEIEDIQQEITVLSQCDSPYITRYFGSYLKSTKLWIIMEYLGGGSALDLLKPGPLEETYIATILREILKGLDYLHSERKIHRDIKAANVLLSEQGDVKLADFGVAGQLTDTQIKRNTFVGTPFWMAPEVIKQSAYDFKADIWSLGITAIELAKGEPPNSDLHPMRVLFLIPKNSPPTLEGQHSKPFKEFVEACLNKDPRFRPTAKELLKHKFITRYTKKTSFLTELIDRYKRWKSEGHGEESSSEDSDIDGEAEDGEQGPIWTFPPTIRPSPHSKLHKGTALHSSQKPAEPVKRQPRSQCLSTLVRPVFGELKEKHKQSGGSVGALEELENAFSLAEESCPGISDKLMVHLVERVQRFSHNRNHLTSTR

Chain of Homeodomain-interacting protein kinase 2 (Homo sapiens) (Q9H2X6 whole entry, looked up): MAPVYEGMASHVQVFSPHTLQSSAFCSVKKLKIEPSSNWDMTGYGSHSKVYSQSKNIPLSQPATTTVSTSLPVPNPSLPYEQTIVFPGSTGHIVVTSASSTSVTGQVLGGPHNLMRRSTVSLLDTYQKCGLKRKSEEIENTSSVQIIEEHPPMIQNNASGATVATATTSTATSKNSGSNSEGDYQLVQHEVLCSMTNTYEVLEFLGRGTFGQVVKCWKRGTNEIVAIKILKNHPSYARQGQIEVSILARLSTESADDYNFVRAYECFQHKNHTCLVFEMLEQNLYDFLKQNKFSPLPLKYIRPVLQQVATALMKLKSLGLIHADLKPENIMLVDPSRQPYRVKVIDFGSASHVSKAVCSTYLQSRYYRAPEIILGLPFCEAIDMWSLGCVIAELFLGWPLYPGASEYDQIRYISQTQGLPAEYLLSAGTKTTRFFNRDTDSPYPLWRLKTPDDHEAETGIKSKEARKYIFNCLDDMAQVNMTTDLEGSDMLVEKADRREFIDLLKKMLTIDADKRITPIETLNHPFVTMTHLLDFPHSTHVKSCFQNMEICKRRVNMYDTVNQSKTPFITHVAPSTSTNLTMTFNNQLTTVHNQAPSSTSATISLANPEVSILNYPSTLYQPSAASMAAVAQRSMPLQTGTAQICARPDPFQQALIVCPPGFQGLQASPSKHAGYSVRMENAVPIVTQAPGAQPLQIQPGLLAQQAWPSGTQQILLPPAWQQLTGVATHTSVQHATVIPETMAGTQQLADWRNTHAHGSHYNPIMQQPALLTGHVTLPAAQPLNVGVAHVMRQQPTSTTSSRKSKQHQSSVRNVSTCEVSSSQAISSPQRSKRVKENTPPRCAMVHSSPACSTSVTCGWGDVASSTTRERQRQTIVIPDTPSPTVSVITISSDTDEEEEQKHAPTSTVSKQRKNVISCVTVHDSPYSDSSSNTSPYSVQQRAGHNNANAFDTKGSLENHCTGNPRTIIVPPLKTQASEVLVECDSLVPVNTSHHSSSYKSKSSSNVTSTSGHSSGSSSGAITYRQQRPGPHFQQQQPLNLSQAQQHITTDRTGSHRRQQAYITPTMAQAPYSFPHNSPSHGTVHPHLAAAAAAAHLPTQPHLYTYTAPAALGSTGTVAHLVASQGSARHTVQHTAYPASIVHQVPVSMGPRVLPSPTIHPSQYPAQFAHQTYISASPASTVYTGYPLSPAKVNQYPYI
Chain of Cyclin-dependent kinase 6 (Homo sapiens) (Q00534 whole entry): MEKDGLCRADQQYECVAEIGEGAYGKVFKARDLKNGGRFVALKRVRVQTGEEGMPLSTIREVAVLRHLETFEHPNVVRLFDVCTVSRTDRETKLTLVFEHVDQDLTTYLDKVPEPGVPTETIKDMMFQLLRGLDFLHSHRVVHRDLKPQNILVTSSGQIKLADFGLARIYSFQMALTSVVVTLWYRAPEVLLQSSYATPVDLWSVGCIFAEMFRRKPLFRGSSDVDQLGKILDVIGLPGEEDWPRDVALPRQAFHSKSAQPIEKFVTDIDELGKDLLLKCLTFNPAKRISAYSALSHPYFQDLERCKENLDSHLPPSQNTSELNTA

In the case of `CNC(=O)c1ccccc1Oc1nc(Nc2cc(OC)c(OC)c(OC)c2)ncc1Br`, the inhibition [1] is reported as 0%, the inhibition [2] is reported as 0% and the fold change (FC) [3] is reported as 0.01.
`CC(C)[C@H](NC(=O)c1cc(-c2cnn3cc(-c4ccc(OCCN5CCCCC5)cc4)cnc23)cs1)C(F)(F)F` gave an inhibition [4] of 23%, an inhibition [5] of 0% and a fold change (FC) [6] of 0.06.
`O=C(N[C@@H](C1CC1)C(F)(F)F)c1cc(-c2cnn3cc(-c4ccc(F)cc4)cnc23)cs1` was tested, and the inhibition [7] was 0%.
